In patent US9975907B2, “Pyrimidinones as PI3K inhibitors” (Incyte Corporation, priority 2009, dated 2018):

Columns and labels:
[1] = molecular target: PI3Kβ (Homo sapiens (Human), UniProt P42338); experiment: PI3K Enzyme Assay A2 ([γ-33P]ATP filter plate), PI3Kβ; assay type: biochemical; conditions: Assay A2, 1000 μM ATP
Procedure: Materials: Lipid kinase substrate, phosphoinositol-4,5-bisphosphate (PIP2), was purchased from Echelon Biosciences (Salt Lake City, Utah). PI3K isoforms α, β, δ and γ were purchased from Millipore (Bedford, Mass.). ATP, MgCh, DTT, EDTA, MOPS and CHAPS were purchased from Sigma-Aldrich (St. Louis, Mo.). The kinase reaction was conducted in clear-bottom 96-well plate from Thermo Fisher Scientific in a final volume of 24 μL. Inhibitors were first diluted serially in DMSO and added to the plate wells before the addition of other reaction components. The final concentration of DMSO in the assay was 0.5%. The PI3K assays were carried out at room temperature in 20 mM MOPS, pH 6.7, 10 mM MgCl2, 5 mM DTT and CHAPS 0.03%. The reaction mixture was prepared containing 50 μM PIP2, kinase and varying concentration of inhibitors. Reactions were initiated by the addition of ATP containing 2.2 μCi [γ-^33P]ATP to a final concentration of 1000 μM. […] Reactions were incubated for 180 min and terminated by the addition of 100 μL of 1 M potassium phosphate pH 8.0, 30 mM EDTA quench buffer. A 100 μL aliquot of the reaction solution was then transferred to 96-well Millipore MultiScreen IP 0.45 μm PVDF filter plate (The filter plate was prewetted with 200 μL 100% ethanol, distilled water, and 1 M potassium phosphate pH 8.0, respectively). The filter plate was aspirated on a Millipore Manifold under vacuum and washed with 18×200 μL wash buffer containing 1 M potassium phosphate pH 8.0 and 1 mM ATP. After drying by aspiration and blotting, the plate was air dried in an incubator at 37° C. overnight. Packard TopCount adapter (Millipore) was then attached to the plate followed with addition of 120 μL Microscint 20 scintillation cocktail (Perkin Elmer) in each well. After the plate sealing, the radioactivity of the product was determined by scintillation counting on Topcount (Perkin-Elmer). IC50 determination was performed by fitting the curve of percent control activity versus the log of the inhibitor concentration using the GraphPad Prism 3.0 software. […] See Table 1 for data related to compounds of the invention.

[2] = molecular target: PI3Kδ (p110δ/p85α) (Homo sapiens (Human), UniProt O00329); experiment: PI3Kδ Scintillation Proximity Assay (Assay A3); assay type: biochemical; conditions: column b, Assay A3 (SPA), 20 μM ATP
Chain of PI3Kδ (p110δ/p85α) (O00329 whole entry, species assumed): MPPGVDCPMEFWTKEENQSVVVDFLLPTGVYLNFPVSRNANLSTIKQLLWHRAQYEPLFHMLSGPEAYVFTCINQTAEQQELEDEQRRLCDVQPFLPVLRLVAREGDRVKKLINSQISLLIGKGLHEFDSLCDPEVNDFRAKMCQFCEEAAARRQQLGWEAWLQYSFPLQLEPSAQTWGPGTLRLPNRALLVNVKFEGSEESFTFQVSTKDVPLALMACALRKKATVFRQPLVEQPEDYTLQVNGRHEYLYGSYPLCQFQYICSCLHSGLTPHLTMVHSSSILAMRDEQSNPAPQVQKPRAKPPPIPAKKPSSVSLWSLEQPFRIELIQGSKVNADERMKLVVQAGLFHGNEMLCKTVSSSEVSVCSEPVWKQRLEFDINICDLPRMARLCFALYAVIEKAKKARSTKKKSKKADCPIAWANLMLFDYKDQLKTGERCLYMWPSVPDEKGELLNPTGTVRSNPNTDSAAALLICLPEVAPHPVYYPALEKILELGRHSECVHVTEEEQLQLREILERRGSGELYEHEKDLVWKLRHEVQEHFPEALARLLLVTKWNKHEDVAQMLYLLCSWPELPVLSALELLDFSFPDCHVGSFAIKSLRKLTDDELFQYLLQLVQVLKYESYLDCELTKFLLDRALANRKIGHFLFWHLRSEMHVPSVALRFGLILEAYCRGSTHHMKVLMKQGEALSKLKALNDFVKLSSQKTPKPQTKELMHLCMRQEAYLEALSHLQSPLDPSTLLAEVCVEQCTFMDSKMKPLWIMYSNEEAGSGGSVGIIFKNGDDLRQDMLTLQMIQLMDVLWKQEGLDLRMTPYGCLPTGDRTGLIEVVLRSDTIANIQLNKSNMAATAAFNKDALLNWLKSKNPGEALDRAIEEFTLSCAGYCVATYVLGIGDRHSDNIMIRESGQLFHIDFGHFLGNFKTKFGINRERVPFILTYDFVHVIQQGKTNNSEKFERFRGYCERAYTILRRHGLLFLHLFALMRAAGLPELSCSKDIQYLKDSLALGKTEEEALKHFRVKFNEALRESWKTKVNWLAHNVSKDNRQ
Chain of PI3Kδ (p110δ/p85α) (P27986 whole entry partner, species assumed): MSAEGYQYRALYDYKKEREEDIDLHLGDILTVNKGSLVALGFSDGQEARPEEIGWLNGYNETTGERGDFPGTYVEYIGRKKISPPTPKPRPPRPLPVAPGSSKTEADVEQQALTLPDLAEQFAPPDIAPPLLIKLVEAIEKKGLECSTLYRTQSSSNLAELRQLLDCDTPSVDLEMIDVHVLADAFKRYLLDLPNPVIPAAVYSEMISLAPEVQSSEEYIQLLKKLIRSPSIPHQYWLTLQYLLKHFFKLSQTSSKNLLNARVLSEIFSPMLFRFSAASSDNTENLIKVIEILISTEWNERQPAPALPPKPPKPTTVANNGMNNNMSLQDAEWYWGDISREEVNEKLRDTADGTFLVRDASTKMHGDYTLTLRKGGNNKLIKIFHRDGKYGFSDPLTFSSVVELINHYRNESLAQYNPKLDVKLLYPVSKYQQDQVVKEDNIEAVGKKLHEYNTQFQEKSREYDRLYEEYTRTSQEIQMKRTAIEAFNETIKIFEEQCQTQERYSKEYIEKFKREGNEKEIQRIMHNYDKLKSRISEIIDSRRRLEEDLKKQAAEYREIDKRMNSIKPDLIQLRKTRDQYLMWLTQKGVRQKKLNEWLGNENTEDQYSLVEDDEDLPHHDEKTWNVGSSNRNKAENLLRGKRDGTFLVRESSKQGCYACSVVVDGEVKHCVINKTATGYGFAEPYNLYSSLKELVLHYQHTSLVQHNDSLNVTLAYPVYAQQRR
How it was run: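 Human p110δ/p85α (4 nM) with 20 μM diC8-PIP2 and 20 μM ATP plus [γ-33P]ATP, 210 min at room temperature in 20 mM MOPS pH 6.7, 10 mM MgCl2, 5 mM DTT, 0.03% CHAPS, 0.5% DMSO. Product captured on WGA SPA beads in EDTA quench; IC50 from percent-control versus log concentration fit.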

Chain of PI3Kβ (P42338 whole entry, species assumed, canonical isoform): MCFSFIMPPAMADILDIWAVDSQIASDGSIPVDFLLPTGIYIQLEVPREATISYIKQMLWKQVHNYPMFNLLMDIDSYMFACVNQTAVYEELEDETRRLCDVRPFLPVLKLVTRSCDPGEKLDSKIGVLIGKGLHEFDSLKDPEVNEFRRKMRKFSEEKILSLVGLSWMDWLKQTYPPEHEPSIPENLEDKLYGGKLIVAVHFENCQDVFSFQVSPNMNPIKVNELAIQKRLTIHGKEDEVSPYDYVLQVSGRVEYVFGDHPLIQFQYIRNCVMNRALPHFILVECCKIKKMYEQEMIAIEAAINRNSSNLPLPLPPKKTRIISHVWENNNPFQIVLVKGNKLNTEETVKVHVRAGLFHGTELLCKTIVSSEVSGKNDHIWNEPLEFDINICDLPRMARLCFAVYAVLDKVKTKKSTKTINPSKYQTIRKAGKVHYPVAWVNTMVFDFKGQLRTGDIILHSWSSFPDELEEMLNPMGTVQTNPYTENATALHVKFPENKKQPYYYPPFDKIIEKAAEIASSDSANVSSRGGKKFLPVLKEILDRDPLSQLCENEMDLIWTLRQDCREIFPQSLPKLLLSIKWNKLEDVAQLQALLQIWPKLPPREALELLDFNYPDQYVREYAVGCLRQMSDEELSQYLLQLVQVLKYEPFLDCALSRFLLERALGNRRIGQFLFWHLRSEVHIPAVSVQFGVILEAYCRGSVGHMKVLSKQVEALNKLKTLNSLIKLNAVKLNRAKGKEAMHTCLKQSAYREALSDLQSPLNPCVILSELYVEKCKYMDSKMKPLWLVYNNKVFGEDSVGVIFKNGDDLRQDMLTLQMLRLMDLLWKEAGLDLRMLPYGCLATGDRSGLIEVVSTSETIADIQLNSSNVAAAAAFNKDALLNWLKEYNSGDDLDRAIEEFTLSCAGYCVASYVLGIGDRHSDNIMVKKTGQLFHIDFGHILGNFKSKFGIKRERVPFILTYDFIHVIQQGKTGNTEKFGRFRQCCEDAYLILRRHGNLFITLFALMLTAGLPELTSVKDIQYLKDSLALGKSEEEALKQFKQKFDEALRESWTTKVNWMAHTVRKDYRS
Chain of PI3Kβ (P27986 whole entry partner, species assumed, canonical isoform): as the sequence (P27986 whole entry partner, species assumed) above

For `Cc1csc2nc(C(C)Nc3nc(N)nc4[nH]cnc34)c(-c3ccccc3)c(=O)n12` (stereo not drawn) [Example 9, 7-{1-[(2-amino-9H-purin-6-yl)amino]ethyl}-3-methyl-6-phenyl-5H-[1,3]thiazolo[3,2-a]pyrimidin-5-one], the IC50 [1] was greater than 500 nM and the IC50 [2] was less than 50 nM.
With `Cc1csc2nc(C(C)Nc3nc(N)nc4[nH]cnc34)c(-c3cccc(F)c3)c(=O)n12` (stereo not drawn) [Example 11, 7-{1-[(2-amino-9H-purin-6-yl)amino]ethyl}-6-(3-fluorophenyl)-3-methyl-5H-[1,3]thiazolo[3,2-a]pyrimidin-5-one] the IC50 [1] was greater than 500 nM and the IC50 [2] was less than 50 nM.
`Cc1csc2nc(C(C)Nc3nc(N)nc4[nH]cnc34)c(-c3cc(F)cc(F)c3)c(=O)n12` (stereo not drawn) [Example 13, 7-{1-[(2-amino-9H-purin-6-yl)amino]ethyl}-6-(3,5-difluorophenyl)-3-methyl-5H-[1,3]thiazolo[3,2-a]pyrimidin-5-one] gave an IC50 [1] greater than 500 nM and an IC50 [2] of less than 50 nM.
